From the NIST ThermoML archive (doi:10.1021/je900974u)

Key:
[1] = Crystal
[2] = Molar enthalpy of transition or fusion; details: Crystal; Adiabatic calorimetry
[3] = molar heat capacity at constant pressure; details: 101.33 kPa, Liquid, Vacuum adiabatic calorimetry

CCCCCCCCCCCCCCn1cc[n+](C)c1.O=S(=O)([N-]S(=O)(=O)C(F)(F)F)C(F)(F)F
Details	Molar enthalpy of transition or fusion [kcal/mol]	Triple point temperature [K]
[1]	–	308.72
[2]	9.536	–

[3]
Details	molar heat capacity at constant pressure [J/K/mol]
309.98 K	896.3
310.38 K	898
311.13 K	898.7
312.28 K	899.5
312.7 K	900.9
313.43 K	900.5
314.58 K	902.3
315.01 K	903.4
315.73 K	903.4
316.88 K	904.2
317.32 K	905.3
318.04 K	904
319.19 K	906.1
319.63 K	907.1
320.34 K	907.5
321.49 K	908.6
321.94 K	909.6
322.64 K	909.2
323.79 K	910.6
324.94 K	913.1
326.1 K	913.5
327.25 K	914.4
328.4 K	915.1
329.55 K	915.9
330.69 K	918.6
331.84 K	918.3
332.99 K	919.1
334.14 K	920.6
335.29 K	922.4
336.45 K	923
337.6 K	924.6
338.75 K	925.5
339.89 K	926.2
341.04 K	927.4
342.19 K	927.9
343.33 K	929.9
344.48 K	930.4
345.62 K	931.8
346.77 K	933.1
347.91 K	933.9
349.06 K	935.2
350.2 K	936.7
351.91 K	939.3
354.21 K	941.3
356.51 K	943.4
358.83 K	945.8
361.14 K	947.9
363.45 K	949.8
365.76 K	951.8
368.07 K	953.3

CCCC[N+]1(C)CCCC1.O=S(=O)([N-]S(=O)(=O)C(F)(F)F)C(F)(F)F
Details	Molar enthalpy of transition or fusion [kcal/mol]	Triple point temperature [K]
[1]	–	265.65
[2]	5.234	–

[3]
Details	molar heat capacity at constant pressure [J/K/mol]
237.44 K	546.8
239.5 K	548
241.39 K	549
243.28 K	550.7
245.17 K	552.2
247.06 K	553.5
248.95 K	554.6
250.84 K	556
252.73 K	557.3
254.62 K	558.7
256.51 K	559.6
258.4 K	561.5
260.29 K	562.1
262.04 K	563.9
262.18 K	563.5
264.07 K	565.2
264.1 K	565.2
265.99 K	566.6
267.88 K	567.6
269.77 K	568.9
271.66 K	570.2
273.55 K	571.6
275.44 K	572.9
277.33 K	574.2
279.22 K	575.3
281.11 K	576.6
283 K	577.9
284.89 K	579.2
286.78 K	580.2
288.67 K	581.4
290.56 K	582.8
292.45 K	584
294.34 K	585.1
296.23 K	586.3
298.12 K	588
300.01 K	589
301.9 K	590.6
303.79 K	591.8
305.68 K	593
307.57 K	594.5
309.46 K	595.6
311.34 K	596.7
313.23 K	598.2
315.12 K	599.6
317.02 K	600.8
318.92 K	602.2
320.82 K	603.4
322.71 K	604.5
324.61 K	606.1
326.51 K	607.5
328.41 K	608.6
330.31 K	609.9
332.21 K	611.4
334.11 K	612.9
336.01 K	614.2
337.91 K	615.4
339.81 K	616.8
341.72 K	618.2
343.62 K	619.5
345.52 K	621
347.44 K	622.4
349.34 K	623.9
351.25 K	625.2
353.16 K	626.7
355.06 K	627.9
356.97 K	629.2
358.87 K	630.9
360.78 K	632.1
362.69 K	633.7
364.59 K	635
366.5 K	636.1
368.4 K	638

CCCCn1cc[n+](C)c1.N#CN=C=[N-] [1-butyl-3-methylimidazolium dicyanamide]
Details	Molar enthalpy of transition or fusion [kcal/mol]	Triple point temperature [K]
[1]	–	270.83
[2]	4.254	–

[3]
Details	molar heat capacity at constant pressure [J/K/mol]
235.8 K	355.9
237.81 K	356.5
239.87 K	356.9
241.93 K	357.5
243.99 K	357.9
246.05 K	358.6
248.11 K	359.2
249.31 K	359.4
250.17 K	359.8
251.33 K	360.2
252.23 K	360.4
253.39 K	360.8
254.29 K	360.8
255.46 K	361.2
256.35 K	361.4
257.53 K	362
258.41 K	362
259.59 K	362.7
260.48 K	362.7
261.66 K	363.3
262.54 K	363.5
263.72 K	363.9
264.6 K	364.1
265.79 K	364.7
266.66 K	364.7
267.86 K	365.3
268.72 K	365.3
269.92 K	365.9
270.79 K	366.1
271.99 K	366.5
272.85 K	366.8
274.05 K	367.2
274.91 K	367.4
276.12 K	368
278.19 K	368.6
280.25 K	369.4
282.32 K	370
284.39 K	370.9
286.45 K	371.5
288.52 K	372.3
290.59 K	372.9
292.65 K	373.7
294.72 K	374.5
296.78 K	375.4
298.85 K	376.2
300.92 K	376.8
302.98 K	377.6
305.05 K	378.4
307.12 K	379.1
309.18 K	379.9
311.25 K	380.7
313.32 K	381.5
315.39 K	382.3
317.46 K	382.9
319.53 K	383.8
321.6 K	384.8
323.67 K	385.6
325.73 K	386.4
327.8 K	387
329.87 K	388.1
331.94 K	388.9
334.01 K	389.7
336.08 K	390.5
338.15 K	391.1
340.22 K	392
342.29 K	392.8
344.36 K	393.6
346.43 K	394.4
348.5 K	395.5
350.57 K	396.3
352.65 K	397.1
354.72 K	397.9
356.79 K	398.9
358.86 K	399.6
360.93 K	400.6
363 K	401.4
365.07 K	402.2
367.14 K	403.2

CCCCn1cc[n+](C)c1.F[B-](F)(F)F [1-butyl-3-methylimidazolium tetrafluoroborate]
[3]
Details	molar heat capacity at constant pressure [J/K/mol]
189.66 K	332
191.85 K	332.1
194.05 K	332.1
196.25 K	332.7
198.46 K	332.8
200.67 K	333.2
202.89 K	333.7
205.12 K	334
207.35 K	334.5
209.58 K	335
211.82 K	335.5
214.06 K	335.9
216.3 K	336.8
218.55 K	337.2
220.8 K	337.8
223.05 K	338.8
225.31 K	339.2
227.56 K	339.9
229.82 K	340.4
232.09 K	340.9
236.62 K	342.8
238.89 K	343.3
241.18 K	344.4
243.46 K	345.4
245.73 K	345.8
248.01 K	346.6
250.29 K	347.5
252.57 K	348.5
254.85 K	349
257.13 K	350.2
259.41 K	351
261.7 K	351.4
263.98 K	352.6
266.27 K	353.5
268.56 K	354.6
270.84 K	355.7
273.13 K	356.4
275.42 K	357.4
277.72 K	358.3
280.02 K	359.2
282.31 K	360.2
284.6 K	361.6
286.89 K	362.1
289.17 K	363.3
291.46 K	364.2
293.74 K	365.4
296.02 K	366.3
298.3 K	367
300.57 K	368.2
302.84 K	368.7
305.11 K	370
307.38 K	371.1
309.64 K	372.6
311.9 K	373.5
314.16 K	374.2
316.43 K	375.5
318.69 K	376.9
320.95 K	377.9
323.2 K	378.9
325.45 K	379.6
327.7 K	381.1
329.95 K	381.9
332.2 K	382.6
334.45 K	384.1
336.69 K	384.9
338.94 K	386
341.18 K	387.3
343.42 K	388.6
345.66 K	389.8
347.9 K	390.7
350.14 K	391.8
352.38 K	392.4
354.62 K	393.9
356.85 K	394.2
359.08 K	395.7
361.31 K	396.6
363.54 K	397.9
365.76 K	399
367.98 K	400.1
